These results are taken from patent US20040077728A1, “Retiferol derivatives and their use in the treatment of skin diseases or conditions associated with photodamage” (priority 2000, published 2004).

The series in a line: Calcium liability (tolerance test in mice). The class given is in vivo. Particulars: mice (25-30 g), daily subcutaneous administration for 4 consecutive days; dose giving zero weight gain over the 5-day treatment period. From the text:
Calcium Liability (Tolerance Test in Mice):
This test gives a global picture of calcemic liability. Profound changes in calcium homeostasis strongly affect the weight development of the animals. This parameter was used as a primary test for tolerance. Mice (25-30 g body weight) received daily subcutaneous administrations of the vitamin D derivative for 4 consecutive days. Body weight was registered just before and at the end of a 5-day treatment period. The “highest tolerated dose” (HTDsc) in mice is the dose which results in zero weight gain during this treatment period.

The structures appear in SMILES notation.

On to `C=C1/C(=C\C=C2/CCC[C@]3(C)[C@@H]([C@H](C)CCCC(C)(C)O)CC[C@@H]23)C[C@@H](O)C[C@@H]1O` [calcitriol], for which the “HTDs.c. highest tolerated dose without weight loss” value was found to be 1 µg/kg.
